Reference: patent US7473790B2 (Pfizer Inc., priority 2003, dated 2009)

Biological target: T1, HCV polymerase (Hepatitis C virus genotype 1b, UniProt P26663)
T1 construct: 2.5 pmoles (0.15 μg) HCV polymerase protein in a final volume of 75 μL
Experiment: HCV polymerase primer/template-directed transcription assay (32P-GTP incorporation, filter binding)
Type: biochemical
Conditions: recombinant HCV polymerase; 30 minutes at 30° C.; concentration giving 50% inhibition of polymerase-directed transcription; read-out: IC50
How it was run: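 Recombinant genotype 1b polymerase (30 nM) extended biotin-dG12 primer on poly(rC)300 template with 1 μM GTP plus α-32P-GTP, pH 7.2, 10 mM MgCl2, 30 min at 30° C, 1% DMSO final. Products captured on DE filters and counted. IC50 fitted from triplicate cpm, with a tight-binding correction applied below 200 nM.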

T1 sequence (P26663 2420-3010): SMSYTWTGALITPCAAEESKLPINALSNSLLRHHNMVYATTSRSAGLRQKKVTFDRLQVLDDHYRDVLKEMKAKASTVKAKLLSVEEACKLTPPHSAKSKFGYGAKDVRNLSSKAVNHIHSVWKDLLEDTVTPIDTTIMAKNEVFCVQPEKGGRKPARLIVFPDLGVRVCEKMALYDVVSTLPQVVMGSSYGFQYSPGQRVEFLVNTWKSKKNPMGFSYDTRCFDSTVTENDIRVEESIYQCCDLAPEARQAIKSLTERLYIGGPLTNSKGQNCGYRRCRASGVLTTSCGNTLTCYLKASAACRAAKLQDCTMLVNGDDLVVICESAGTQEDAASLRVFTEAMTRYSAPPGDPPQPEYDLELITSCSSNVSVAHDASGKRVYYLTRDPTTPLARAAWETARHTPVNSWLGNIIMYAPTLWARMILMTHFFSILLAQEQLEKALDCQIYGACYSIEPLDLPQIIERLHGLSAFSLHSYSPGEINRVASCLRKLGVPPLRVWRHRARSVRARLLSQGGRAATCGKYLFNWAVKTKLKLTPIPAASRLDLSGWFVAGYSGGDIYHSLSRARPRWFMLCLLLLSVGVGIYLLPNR

| Compound | IC50 [µM] |
| --- | --- |
| CC(C)(O)c1ccc(CCC2(C3CCCC3)CC(O)=C(Cc3nc4ncccn4n3)C(=O)O2)cc1F (centres unmarked) [A(220), 6-cyclopentyl-6-{2-[3-fluoro-4-(1-hydroxy-1-methylethyl)phenyl]ethyl}-4-hydroxy-3-([1,2,4]triazolo[1,5-a]pyrimidin-2-ylmethyl)-5,6-dihydro-2H-pyran-2-one] | 0.172 |
| CC(C)(C#N)c1ccc(CCC2(C3CCCC3)CC(O)=C(Cc3cn4cccnc4n3)C(=O)O2)cc1F (centres unmarked) [A(221), 2-(4-{2-[2-cyclopentyl-4-hydroxy-5-(imidazo[1,2-a]pyrimidin-2-ylmethyl)-6-oxo-3,6-dihydro-2H-pyran-2-yl]ethyl}-2-fluorophenyl)-2-methylpropanenitrile] | 0.014 |
| CC(C)(C#N)c1ccc(CCC2(C3CCCC3)CC(O)=C(Cc3cnc4ncccn34)C(=O)O2)cc1F (centres unmarked) [A(222), 2-(4-{2-[2-cyclopentyl-4-hydroxy-5-(imidazo[1,2-a]pyrimidin-3-ylmethyl)-6-oxo-3,6-dihydro-2H-pyran-2-yl]ethyl}-2-fluorophenyl)-2-methylpropanenitrile] | 0.12 |
| Cc1cnc2nc(CC3=C(O)CC(CCc4ccc(O)c(CC(F)(F)F)c4)(C4CCCC4)OC3=O)nn2c1 (centres unmarked) [A(224), 6-cyclopentyl-4-hydroxy-6-{2-[4-hydroxy-3-(2,2,2-trifluoroethyl)phenyl]ethyl}-3-[(6-methyl[1,2,4]triazolo[1,5-a]pyrimidin-2-yl)methyl]-5,6-dihydro-2H-pyran-2-one] | 0.004 |
| Cc1cc(C)n2nc(CC3=C(O)CC(CCc4ccc(O)c(CC(F)(F)F)c4)(C4CCCC4)OC3=O)nc2n1 (centres unmarked) [A(225), 6-cyclopentyl-3-[(5,7-dimethyl[1,2,4]triazolo[1,5-a]pyrimidin-2-yl)methyl]-4-hydroxy-6-{2-[4-hydroxy-3-(2,2,2-trifluoroethyl)phenyl]ethyl}-5,6-dihydro-2H-pyran-2-one] | 0.003 |
| O=C1CC(=O)OC(CCc2ccc(O)c(CC(F)(F)F)c2)(C2CCCC2)C1 (centres unmarked) [A(228), 6-cyclopentyl-6-{2-[4-hydroxy-3-(2,2,2-trifluoroethyl)phenyl]ethyl}dihydro-2H-pyran-2,4(3H)-dione] | 0.47 |
| CCc1cc(CCC2(C3CCCC3)CC(O)=C(Cc3nc4nc(C)ccn4n3)C(=O)O2)ccc1O (centres unmarked) [A(229), 6-cyclopentyl-6-[2-(3-ethyl-4-hydroxyphenyl)ethyl]-4-hydroxy-3-[(5-methyl[1,2,4]triazolo[1,5-a]pyrimidin-2-yl)methyl]-5,6-dihydro-2H-pyran-2-one] | 0.01 |
| CCc1cc(CCC2(C3CCCC3)CC(O)=C(Cc3nc4ncc(Br)cn4n3)C(=O)O2)ccc1O (centres unmarked) [A(230), 3-[(6-bromo[1,2,4]triazolo[1,5-a]pyrimidin-2-yl)methyl]-6-cyclopentyl-6-[2-(3-ethyl-4-hydroxyphenyl)ethyl]-4-hydroxy-5,6-dihydro-2H-pyran-2-one] | 0.011 |
| CCc1cc(CCC2(C3CCCC3)CC(O)=C(Cc3nc4ncc(Cl)cn4n3)C(=O)O2)cc(CC)c1O (centres unmarked) [A(231), 3-[(6-chloro[1,2,4]triazolo[1,5-a]pyrimidin-2-yl)methyl]-6-cyclopentyl-6-[2-(3,5-diethyl-4-hydroxyphenyl)ethyl]-4-hydroxy-5,6-dihydro-2H-pyran-2-one] | 0.006 |
| CCc1cc(CCC2(C3CCCC3)CC(O)=C(Cc3nc4nc(C)cc(C)n4n3)C(=O)O2)cc(CC)c1O (centres unmarked) [A(232), 6-cyclopentyl-6-[2-(3,5-diethyl-4-hydroxyphenyl)ethyl]-3-[(5,7-dimethyl[1,2,4]triazolo[1,5-a]pyrimidin-2-yl)methyl]-4-hydroxy-5,6-dihydro-2H-pyran-2-one] | 0.004 |
| CCc1cc(CCC2(C3CCCC3)CC(O)=C(Cc3nc4ncc(C)cn4n3)C(=O)O2)cc(CC)c1O (centres unmarked) [A(233), 6-cyclopentyl-6-[2-(3,5-diethyl-4-hydroxyphenyl)ethyl]-4-hydroxy-3-[(6-methyl[1,2,4]triazolo[1,5-a]pyrimidin-2-yl)methyl]-5,6-dihydro-2H-pyran-2-one] | 0.011 |
| CCc1cc(CCC2(C3CCCC3)CC(O)=C(Cc3nc4ncccn4n3)C(=O)O2)cc(CC)c1O (centres unmarked) [A(234), 6-cyclopentyl-6-[2-(3,5-diethyl-4-hydroxyphenyl)ethyl]-4-hydroxy-3-([1,2,4]triazolo[1,5-a]pyrimidin-2-ylmethyl)-5,6-dihydro-2H-pyran-2-one] | 0.011 |
| CCc1cc(CCC2(C3CCCC3)CC(=O)CC(=O)O2)cc(CC)c1O (centres unmarked) [A(235), 6-cyclopentyl-6-[2-(3,5-diethyl-4-hydroxyphenyl)ethyl]dihydro-2H-pyran-2,4(3H)-dione] | 0.89 |
| Cc1cc(C)n2nc(CC3=C(O)CC(CCc4ccc(C5(C#N)CCC5)c(F)c4)(C4CCCC4)OC3=O)nc2n1 (centres unmarked) [A(236), 1-(4-{2-[2-Cyclopentyl-5-(5,7-dimethyl-[1,2,4]triazolo[1,5-a]pyrimidin-2-ylmethyl)-4-hydroxy-6-oxo-3,6-dihydro-2H-pyran-2-yl]-ethyl}-2-fluoro-phenyl)-cyclobutanecarbonitrile] | 0.003 |
| N#CC1(c2ccc(CCC3(C4CCCC4)CC(=O)CC(=O)O3)cc2F)CCC1 (centres unmarked) [A(237), 1-{4-[2-(2-Cyclopentyl-4,6-dioxo-tetrahydro-pyran-2-yl)-ethyl]-2-fluoro-phenyl}-cyclobutanecarbonitrile] | 1 |
| N#CC1(c2ccc(CCC3(C4CCCC4)CC(O)=C(Cc4nc5ncccn5n4)C(=O)O3)cc2F)CCC1 (centres unmarked) [A(238), 1-{4-[2-(2-Cyclopentyl-4-hydroxy-6-oxo-5-[1,2,4]triazolo[1,5-a]pyrimidin-2-ylmethyl-3,6-dihydro-2H-pyran-2-yl)-ethyl]-2-fluoro-phenyl}-cyclobutanecarbonitrile] | 0.01 |
| Cc1cnc2nc(CC3=C(O)CC(CCc4ccc(C5(C#N)CCC5)c(F)c4)(C4CCCC4)OC3=O)nn2c1 (centres unmarked) [A(239), 1-(4-{2-[2-Cyclopentyl-4-hydroxy-5-(6-methyl-[1,2,4]triazolo[1,5-a]pyrimidin-2-ylmethyl)-6-oxo-3,6-dihydro-2H-pyran-2-yl]-ethyl}-2-fluoro-phenyl)-cyclobutanecarbonitrile] | 0.003 |
| Cc1cnc2nc(CC3=C(O)CC(CCc4ccc(C(C)C#N)c(F)c4)(C4CCCC4)OC3=O)nn2c1 (centres unmarked) [A(240), 2-(4-{2-[2-Cyclopentyl-4-hydroxy-5-(6-methyl-[1,2,4]triazolo[1,5-a]pyrimidin-2-ylmethyl)-6-oxo-3,6-dihydro-2H-pyran-2-yl]-ethyl}-2-fluoro-phenyl)-propionitrile] | 0.009 |
| CC(C#N)c1ccc(CCC2(C3CCCC3)CC(=O)CC(=O)O2)cc1F (centres unmarked) [A(241), 2-{4-[2-(2-Cyclopentyl-4,6-dioxo-tetrahydro-pyran-2-yl)-ethyl]-2-fluoro-phenyl}-propionitrile] | 0.8 |
| CCc1cnc2nc(CC3=C(O)CC(CCc4cc(F)c(C(C)(C)C#N)c(F)c4)(C4CCCC4)OC3=O)nn2c1 (centres unmarked) [A(252), 2-(4-{2-[2-Cyclopentyl-5-(6-ethyl-[1,2,4]triazolo[1,5-a]pyrimidin-2-ylmethyl)-4-hydroxy-6-oxo-3,6-dihydro-2H-pyran-2-yl]-ethyl}-2,6-difluoro-phenyl)-2-methyl-propionitrile] | 0.01 |
| Cc1ccn2nc(CC3=C(O)CC(CCc4cc(F)c(C(C)(C)C#N)c(F)c4)(C4CCCC4)OC3=O)nc2n1 (centres unmarked) [A(253), 2-(4-{2-[2-Cyclopentyl-4-hydroxy-5-(5-methyl-[1,2,4]triazolo[1,5-a]pyrimidin-2-ylmethyl)-6-oxo-3,6-dihydro-2H-pyran-2-yl]-ethyl}-2,6-difluoro-phenyl)-2-methyl-propionitrile] | 0.006 |
| Cc1cnc2nc(CC3=C(O)CC(CCc4cc(F)c(C5(C#N)CC5)c(F)c4)(C4CCCC4)OC3=O)nn2c1 (centres unmarked) [A(254)] | 0.012 |
| N#CC1(c2c(F)cc(CCC3(C4CCCC4)CC(=O)CC(=O)O3)cc2F)CC1 (centres unmarked) [A(255), 1-{4-[2-(2-Cyclopentyl-4,6-dioxo-tetrahydro-pyran-2-yl)-ethyl]-2,6-difluoro-phenyl}-cyclopropanecarbonitrile] | 1.9 |
| COc1cc(C(C)(C)C#N)c(F)cc1CCC1(C2CCCC2)CC(O)=C(Cc2nc3ncc(C)cn3n2)C(=O)O1 (centres unmarked) [A(261), 2-(4-{2-[2-Cyclopentyl-4-hydroxy-5-(6-methyl-[1,2,4]triazolo[1,5-a]pyrimidin-2-ylmethyl)-6-oxo-3,6-dihydro-2H-pyran-2-yl]-ethyl}-2-fluoro-5-methoxy-phenyl)-2-methyl-propionitrile] | 0.004 |
| CCNC(=O)C(C)(C)c1ccc(CCC2(C3CCCC3)CC(O)=C(Cc3nc4ncc(C)cn4n3)C(=O)O2)cc1F (centres unmarked) [A(268), 2-(4-{2-[2-Cyclopentyl-4-hydroxy-5-(6-methyl-[1,2,4]triazolo[1,5-a]pyrimidin-2-ylmethyl)-6-oxo-3,6-dihydro-2H-pyran-2-yl]-ethyl}-2-fluoro-phenyl)-N-ethyl-isobutyramide] | 0.68 |
| Cc1cnc2nc(CC3=C(O)CC(CCc4ccc(C(C)(C)CO)c(F)c4)(C4CCCC4)OC3=O)nn2c1 (centres unmarked) [A(269), 6-Cyclopentyl-6-{2-[3-fluoro-4-(2-hydroxy-1,1-dimethyl-ethyl)-phenyl]-ethyl}-4-hydroxy-3-(6-methyl-[1,2,4]triazolo[1,5-a]pyrimidin-2-ylmethyl)-5,6-dihydro-pyran-2-one] | 0.026 |
| COC(=O)C(C)(C)c1ccc(CCC2(C3CCCC3)CC(O)=C(Cc3nc4ncc(C)cn4n3)C(=O)O2)cc1F (centres unmarked) [A(270), 2-(4-{2-[2-Cyclopentyl-4-hydroxy-5-(6-methyl-[1,2,4]triazolo[1,5-a]pyrimidin-2-ylmethyl)-6-oxo-3,6-dihydro-2H-pyran-2-yl]-ethyl}-2-fluoro-phenyl)-2-methyl-propionic acid methyl ester] | 0.037 |
| COc1ccc(CCC2(C3CCCC3)CC(O)=C(Cc3nc4nc(C)cc(C)n4n3)C(=O)O2)cc1F (centres unmarked) [B(01)] | 0.015 |
| CCOc1ccc(CCC2(C3CCCC3)CC(O)=C(Cc3nc4nc(C)cc(C)n4n3)C(=O)O2)cc1F (centres unmarked) [B(02), 6-Cyclopentyl-3-(5,7-dimethyl-[1,2,4]triazolo[1,5-a]pyrimidin-2-ylmethyl)-6-[2-(4-ethoxy-3-fluoro-phenyl)-ethyl]-4-hydroxy-5,6-dihydro-pyran-2-one] | 0.027 |
